Laboratory results as given in patent US4312861A, “Pharmaceutical compositions containing N-alkyl-N-(nuclearly-substituted) benzylamines having vasotonia-regulating activity” (Hoechst Aktiengesellschaft, priority 1974, dated 1982).
Structures can show the parent of a compound that is named as a salt.

How the values were obtained:
[1] = system: carrageenin oedema in the rat paw; assay: Suppression of carrageenin oedema in the rat paw (Siegmund); assay type: in vivo; conditions: 3 h p.a.
Procedure: (7) Suppression of carrageenin oedema in the rat paw
The inflammation-reducing and anti-oedematous effects on carrageenin and serotonin oedemas in the rat paw were studied according to Siegmund et al (Proc. Soc. exp. Biol. Med. 95 (1957), page 729). The values are given as percentages, based on the values obtained in control tests using a dummy procedure. In this way, the antiphlogistic activity of the substances according to the invention was tested.

mouse [2] = assay: Toxicity in the mouse (Litchfield and Wilcoxon); assay type: in vivo
Procedure: (§1) (6) Toxicity in the mouse
(§2) Toxicity was determined according to Litchfield and Wilcoxon (J. Pharmacol. exp. Ther. 97 (1949), page 399) in the mouse. In comparison, the values with the known substance aescin sodium salt were determined. Comparative tests with 0.1% solution, of venous and optical compatibility on the rabbit yielded similar results.

[3] = system: permeability of the capillaries; assay: Histamine rash test (modified Halpern), capillary permeability; assay type: in vivo; conditions: 30 minutes before histamine
Procedure: The test according to Halpern (Presse medicale 65 (1949), page 949) was used in modified form. The suppressive effect of the compounds according to the invention on the permeability of the capillaries was tested. The blue coloration induced by intravenous administration of trypan blue at two intracutaneous histamine injection points per animal, (trypan blue administered 2 minutes before the histamine), was estimated according to the following scale of values:
indications of blue coloration
clear blue coloration =4
stong blue coloration =6
The preceding evaluation was made from the combined effect at the two injection points.
The test substances were administered i.p. 30 minutes before the histamine injection.

perfused rabbit ear = assay: Blood-flow change in perfused isolated rabbit ear, vaso-dilator activity (Ringer-Norfenefrin solution)
Procedure: (3) Blood-flow change in an isolated rabbit ear
The tests were carried out according to Krakow-Pissemski (Pflugers Archiv 151 (1913), page 583 and 156 (1914), page 426). In Table 5a the estimated values of the vaso-constrictor activity in Ringer solutions of varying concentrations are given and in Table 5b values for vasodilatory activity in Ringer-Norfenefrin solutions of varying concentrations are given. As a comparison, the values obtained with the known preparation aescin sodium are given.

[4] = system: isolated guinea-pig heart; assay: Relative coronary blood-flow change in isolated guinea-pig heart (Langendorff)
Procedure: (4) Relative coronary blood-flow change in an isolated guinea-pig heart.
The tests were carried out according to the method of Langendorff (Pflugers Archiv. 61 (1895), page 219).
In Table 5, the change in coronary blood flow after administration of various quantities of the test substance is compared with that after administration of the known compounds heptaminol and Aescin sodium salt.

isolated portal vein = assay: Isolated rat's portal vein (Berti), increase in tonus
Procedure: (2) Isolated rat's portal vein
The tests on the rat's portal vein, an organ with its own rhythm, were performed according to the method of Berti et al (Arch. int. Pharmacodyn. 184 (1970), page 328). In Table 4, the increase in tonus at various adrenalin concentrations is given in milligrams. As a comparison, the values for the known substance heptaminol (=6-amino-2-methylheptane-2-ol) are also given.

[5] = Toxicity in the mouse (Litchfield and Wilcoxon); assay type: in vivo; conditions: mouse, in vivo
Procedure: as §1, §2

[6] = system: writhing movements in the mouse; assay: Writhing test (Winter); assay type: in vivo
Source text: The analgesic activity of the compounds according to the invention were studied by the method of Winter et al (Proc. Soc. exp. Biol. Med, 111 (1962), page 544), in which the suppression of writhing movements in the mouse was observed.

mouse [7] = assay: Hot-plate test (Chen and Beckman); assay type: in vivo
Procedure: This test was performed on the mouse, according to Chen and Beckman (see Science 113 (1951), page 631). 50 mg/kg of the compound No. 2 (cf. formula sheet) which has been administered per os increase the reaction time of the animals by 70%.

isolated vein sections = assay: Isolated vein section (modified Furchgott), contraction in adrenalin; set-up: species or system rabbit; conditions: in words
Procedure: (§3) (1) Isolated vein and aorta sections
(§4) The tests were carried out on isolated vein and aorta sections from rabbits in accordance with the modified method of Furchgott et al (J. Pharmacol, exp. Ther. 108 (1953), page 129). The contraction of the vein section in adrenalin and of the aorta section in noradrenalin, after administration of 10^-6 g/ml of the test compound was defined to have the base value of 100.

isolated aorta sections = assay: Isolated aorta section (modified Furchgott), contraction in noradrenalin; set-up: species or system rabbit; conditions: in words
Procedure: as §3, §4

[8] = 100 μg (first figure where two are given)

Row | Structure (SMILES) | Suppression of carrageenin oedema in the paw (antiphlogistic activity) ([1]; 100 mg/kg p.o.) [%] | Histamine rash test, blue coloration score (0 = none, 2 = indications, 4 = clear, 6 = strong) ([3]; 1.0 mg/kg i.p.) | Histamine rash test, blue coloration score (0 = none, 2 = indications, 4 = clear, 6 = strong) ([3]; 3.0 mg/kg i.p.) | Relative change in blood flow, vaso-dilator activity (perfused rabbit ear; 3 × 10^-5 g/ml) | Relative change in blood flow, vaso-dilator activity (perfused rabbit ear; 10^-5 g/ml) | Relative change in blood flow, vaso-dilator activity (perfused rabbit ear; 10^-6 g/ml) | Relative change in blood flow, vaso-dilator activity (perfused rabbit ear; 10^-7 g/ml) | Relative change in coronary blood flow [4, 8] | Increase in tonus, isolated rat's portal vein (isolated portal vein; 10^-4 g/ml) | Increase in tonus, isolated rat's portal vein (isolated portal vein; 10^-5 g/ml) | LD50 ([5]; ip) [mg/kg] | LD50 ([5]; po) [mg/kg] | Suppression of writhing movements ([6]; 50 mg/kg p.o.) [%] | also measured
1 | CCCCCC(C)NCc1c(C)cc(C)cc1C (single isomer, unassigned) [compound 4] | 14 | 3.1 | 1.7 | +31 | +104 | +40 | +4 | +125 |  |  |  |  |  | Toxicity in the mouse (mouse [2]; i.p.): 50 to 100 mg/kg; Toxicity in the mouse (mouse [2]; i.v.): 12,4 mg/kg
2 | CCCCCC(C)NCc1c(C)cc(C)cc1C (stereo not shown) [Serial No. 2, 2-(2,4,6-Trimethylbenzyl)-aminoheptane hydrochloride] | 46 | 2.6 | 1.7 |  | +73 | +31 | +3 | +120 | +185 milligrams | +106 milligrams | 114 | 940 | 53 | Suppression of carrageenin oedema in the paw (antiphlogistic activity) ([1]; 25 mg/kg p.o.): 53%; Suppression of carrageenin oedema in the paw (antiphlogistic activity) ([1]; 63 mg/kg p.o.): 52%; LD50 ([5]; iv): 11.7 mg/kg; Suppression of writhing movements ([6]; 40 mg/kg p.o.): 32%; Suppression of writhing movements ([6]; 63 mg/kg p.o.): 51%; Suppression of writhing movements ([6]; 100 mg/kg p.o.): 80%; Histamine rash test, blue coloration score (0 = none, 2 = indications, 4 = clear, 6 = strong) ([3]; 0.1 mg/kg i.p.): 3.5; Histamine rash test, blue coloration score (0 = none, 2 = indications, 4 = clear, 6 = strong) ([3]; 0.3 mg/kg i.p.): 3.4; Histamine rash test, blue coloration score (0 = none, 2 = indications, 4 = clear, 6 = strong) ([3]; 10.0 mg/kg i.p.): 1.9; Relative change in blood flow, vaso-dilator activity (perfused rabbit ear; 10^-4 g/ml): +112; Increase in reaction time of the animals (mouse [7]; 50 mg/kg per os): 70%
3 | CCCCCCC(C)NCc1c(C)cc(C)cc1C (stereo not shown) [Serial No. 26] | 39 | 1.8 | 1.2 |  | +58 | +29 | +7 |  |  |  | 50 to 100 |  | 45 | Vasotonic activity compared with aescin sodium (vein, Table 2) (isolated vein sections): stronger vasotonic activity than the comparison substance aescin sodium; Relative change in coronary blood flow ([4]; 10 μg (first figure where two are given)): +28; Relative change in coronary blood flow ([4]; 30 μg (first figure where two are given)): +57
4 | CCC(C)C(C)NCc1c(C)cc(C)cc1C (stereo not shown) [Serial No. 27] |  | 3.6 | 1.9 | +12 |  | +4 |  |  | +250 milligrams | +19 milligrams | 100 to 250 | 2400 |  | Increase in tonus, isolated rat's portal vein (isolated portal vein; 10^-6 g/ml): -9 milligrams; Vasotonic activity compared with aescin sodium (aorta, Table 3) (isolated aorta sections): stronger vasotonic activity than the comparison substance aescin sodium
5 | Cc1c(N(C)C)c(=O)n(-c2ccccc2)n1C [aminophenazone, reference compound] |  |  |  |  |  |  |  |  |  |  |  |  |  | ED50 (mouse [7]; Mus musculus, comparison substance, read-out: Effective dose of 50% (ED 50), hot-plate test): 84 mg/kg
